ChEMBL document CHEMBL1201862, “PubChem BioAssay data set” (2004)
Structures can show the parent of a compound that is named as a salt. The source made the active and inactive calls.

Tests used:
[1] = target: Runt-related transcription factor 1/Core-binding factor subunit beta (Homo sapiens, UniProt Q01196+Q13951); test: Confirmation of compounds inhibiting the binding between the RUNX1 Runt domain and CBFb-SMMHC via a fluorescence resonance energy transfer (FRET) assay. [Related pubchem assays (depositor defined):AID1434, AID1438, AID1496, AID1550, AID1645]; type: protein assay
[2] = target: T1, CAAX prenyl protease 2 (Saccharomyces cerevisiae S288c, UniProt Q03530); type: biochemical
T1 sequence (Q03530 whole entry): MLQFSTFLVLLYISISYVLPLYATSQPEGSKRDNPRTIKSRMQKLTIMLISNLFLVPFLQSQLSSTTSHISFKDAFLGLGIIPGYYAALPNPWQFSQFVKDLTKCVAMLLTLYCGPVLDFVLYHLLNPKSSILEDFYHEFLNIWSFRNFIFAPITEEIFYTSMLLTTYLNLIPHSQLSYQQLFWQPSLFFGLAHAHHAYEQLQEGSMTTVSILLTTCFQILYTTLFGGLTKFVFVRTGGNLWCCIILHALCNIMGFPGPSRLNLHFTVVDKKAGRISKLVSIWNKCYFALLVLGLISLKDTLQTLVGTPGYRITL

[3] = target: CAAX prenyl protease 1 (Saccharomyces cerevisiae S288c, UniProt P47154); test: Ste24 protease inhibitors, dose response, biochemical, S. cerevisiae, plate reader, cherry-pick (AID 488815)
[4] = target: T2, Hexokinase HKDC1 (Homo sapiens, UniProt Q2TB90); test: HKDC1 hexokinase activators, dose response, biochemical, W721R variant (AID 504730); type: functional
T2 sequence (Q2TB90 whole entry): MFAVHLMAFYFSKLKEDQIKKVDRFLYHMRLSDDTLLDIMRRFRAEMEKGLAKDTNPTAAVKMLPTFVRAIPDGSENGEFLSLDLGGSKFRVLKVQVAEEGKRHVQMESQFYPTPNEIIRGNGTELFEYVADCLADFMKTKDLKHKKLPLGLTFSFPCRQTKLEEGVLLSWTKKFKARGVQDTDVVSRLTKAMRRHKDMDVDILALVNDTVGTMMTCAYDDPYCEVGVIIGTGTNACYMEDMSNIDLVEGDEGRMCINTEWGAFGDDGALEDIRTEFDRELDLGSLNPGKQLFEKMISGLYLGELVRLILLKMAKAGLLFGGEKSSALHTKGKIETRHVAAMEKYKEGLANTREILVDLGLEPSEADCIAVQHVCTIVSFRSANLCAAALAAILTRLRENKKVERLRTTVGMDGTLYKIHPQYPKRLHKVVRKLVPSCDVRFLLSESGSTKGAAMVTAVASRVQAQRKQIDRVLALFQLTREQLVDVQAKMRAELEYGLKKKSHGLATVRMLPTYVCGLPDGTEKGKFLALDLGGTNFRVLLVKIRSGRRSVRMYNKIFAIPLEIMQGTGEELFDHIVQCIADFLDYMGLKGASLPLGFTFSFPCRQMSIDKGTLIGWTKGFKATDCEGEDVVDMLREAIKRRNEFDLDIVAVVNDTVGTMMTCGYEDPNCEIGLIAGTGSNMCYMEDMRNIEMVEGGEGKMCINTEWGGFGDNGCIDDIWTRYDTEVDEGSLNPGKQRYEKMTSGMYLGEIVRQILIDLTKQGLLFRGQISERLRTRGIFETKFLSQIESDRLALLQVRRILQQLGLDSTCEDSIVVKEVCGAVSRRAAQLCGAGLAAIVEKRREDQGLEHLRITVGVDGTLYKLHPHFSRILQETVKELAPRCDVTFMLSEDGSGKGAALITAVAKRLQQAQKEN

[5] = target: T3, Hexokinase-1 (Homo sapiens, UniProt P19367); test: hexokinase 1 activators, dose response, selectivity assay for HKDC1 activator project, biochemical (AID 504762); type: functional
T3 sequence (P19367 whole entry): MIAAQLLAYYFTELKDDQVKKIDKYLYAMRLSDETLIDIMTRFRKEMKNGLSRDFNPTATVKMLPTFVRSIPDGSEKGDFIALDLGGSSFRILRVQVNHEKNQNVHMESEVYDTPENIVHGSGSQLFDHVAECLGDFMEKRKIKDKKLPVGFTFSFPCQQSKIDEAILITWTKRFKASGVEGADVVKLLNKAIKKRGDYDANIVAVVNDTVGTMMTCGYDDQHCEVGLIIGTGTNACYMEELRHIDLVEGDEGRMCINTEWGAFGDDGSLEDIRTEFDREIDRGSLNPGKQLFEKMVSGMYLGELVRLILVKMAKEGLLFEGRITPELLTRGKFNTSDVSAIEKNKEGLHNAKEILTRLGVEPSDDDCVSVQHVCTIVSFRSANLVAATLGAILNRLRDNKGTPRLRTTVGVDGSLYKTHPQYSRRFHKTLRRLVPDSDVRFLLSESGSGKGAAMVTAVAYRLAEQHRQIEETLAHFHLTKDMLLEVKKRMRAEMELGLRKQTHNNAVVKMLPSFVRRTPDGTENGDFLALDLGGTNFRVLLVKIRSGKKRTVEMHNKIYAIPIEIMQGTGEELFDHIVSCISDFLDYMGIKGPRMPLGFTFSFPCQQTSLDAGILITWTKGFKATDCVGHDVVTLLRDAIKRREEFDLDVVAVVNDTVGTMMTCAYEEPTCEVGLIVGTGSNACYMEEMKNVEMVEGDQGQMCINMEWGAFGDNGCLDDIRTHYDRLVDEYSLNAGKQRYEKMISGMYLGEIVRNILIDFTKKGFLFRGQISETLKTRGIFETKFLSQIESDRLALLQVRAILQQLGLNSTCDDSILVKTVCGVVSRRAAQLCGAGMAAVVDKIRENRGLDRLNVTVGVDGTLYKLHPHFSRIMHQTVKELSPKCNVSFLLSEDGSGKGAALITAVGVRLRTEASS

[6] = target: T4, Cannabinoid receptor 2 (Homo sapiens, UniProt P34972); test: SAR analysis of agonists of the Cannabinoid Receptor 2 using an Image-Based Assay - Set 3. [Related pubchem assays (depositor defined):AID2013, AID2026]; type: functional
[7] = target: T5, G-protein coupled receptor 35 (Homo sapiens, UniProt Q9HC97); test: SAR analysis of Antagonists of the GPR35 Receptor using an Image-Based Assay - Set 6. [Related pubchem assays (depositor defined):AID2013, AID2026]; type: functional
[8] = target: T6, Cannabinoid receptor 1 (Homo sapiens, UniProt P21554); test: SAR analysis of antagonists of the Cannabinoid Receptor 1 using an Image-Based Assay - Set 4. [Related pubchem assays (depositor defined):AID2013, AID2026]; type: functional
[9] = target: T5, G-protein coupled receptor 35; test: SAR analysis of Agonists of the GPR35 Receptor using an Image-Based Assay - Set 4. [Related pubchem assays (depositor defined):AID2013, AID2026]; type: functional
[10] = target: T4, Cannabinoid receptor 2; test: SAR analysis of antagonists of the Cannabinoid Receptor 2 using an Image-Based Assay - Set 3. [Related pubchem assays (depositor defined):AID2013, AID2026]; type: functional
[11] = target: T6, Cannabinoid receptor 1; test: SAR analysis of agonists of the Cannabinoid Receptor 1 using an Image-Based Assay - Set 4. [Related pubchem assays (depositor defined):AID2013, AID2026]; type: functional
[12] = target: G-protein coupled receptor 55 (Homo sapiens, UniProt Q9Y2T6); test: SAR Analysis of Selective Antagonists of GPR55 using an Image-Based Assay - Set 4. [Related pubchem assays (depositor defined):AID2013, AID2026]; type: functional;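 further: antagonism of response to 5 µM lysophosphatidylinositol agonist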
[13] = target: Cytochrome P450 3A4 (Homo sapiens, UniProt P08684);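 further: CYP3A4 tested as one member of a cytochrome P450 panel screen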
[14] = target: Cytochrome P450 2C9 (Homo sapiens, UniProt P11712)
[15] = target: Cytochrome P450 2C19 (Homo sapiens, UniProt P33261); test: Cytochrome panel assay with activity outcomes. Panel member name: p450-cyp2c19 Compounds with AC50 equal or less than 10 uM are considered active; type: functional; settings: read-out: AC50
[16] = target: T7, Cytochrome P450 1A2 (Homo sapiens, UniProt P05177);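 further: PubChem cytochrome P450 panel assay, CYP1A2 panel member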
T7 sequence (P05177 whole entry): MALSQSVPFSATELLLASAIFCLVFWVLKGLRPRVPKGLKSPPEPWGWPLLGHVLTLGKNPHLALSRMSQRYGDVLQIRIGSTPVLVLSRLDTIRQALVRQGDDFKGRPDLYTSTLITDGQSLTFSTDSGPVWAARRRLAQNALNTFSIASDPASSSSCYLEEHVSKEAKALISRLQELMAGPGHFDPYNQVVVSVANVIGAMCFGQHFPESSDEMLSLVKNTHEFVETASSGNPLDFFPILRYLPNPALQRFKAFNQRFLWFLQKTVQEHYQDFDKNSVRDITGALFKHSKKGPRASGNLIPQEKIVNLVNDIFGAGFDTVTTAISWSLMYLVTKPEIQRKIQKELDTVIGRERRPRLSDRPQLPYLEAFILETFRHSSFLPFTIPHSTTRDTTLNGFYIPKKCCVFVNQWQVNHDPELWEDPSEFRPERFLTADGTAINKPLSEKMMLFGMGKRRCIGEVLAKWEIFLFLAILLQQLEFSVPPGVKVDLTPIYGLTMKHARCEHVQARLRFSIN

[17] = target: T8, Delta-type opioid receptor (Homo sapiens, UniProt P41143); test: SAR Analysis of Antagonists of the DOR Receptor using an Image-Based Assay - Set 2. [Related pubchem assays (depositor defined):AID1777, AID1785, AID1786, AID1966, AID2133, AID2136, AID2284, AID2285, AID2357]; type: functional
[18] = target: T9, Kappa-type opioid receptor (Homo sapiens, UniProt P41145); test: SAR analysis of Agonists of the Kappa Opioid Receptor (KOR) using an Image-Based Assay - Set 2. [Related pubchem assays (depositor defined):AID1777, AID1786, AID1966, AID2133, AID2136, AID2284, AID2285, AID2359]; type: functional
[19] = target: T10, Mu-type opioid receptor (Homo sapiens, UniProt P35372); test: SAR Analysis of Agonists of the MOR Receptor using an Image-Based Assay - Set 2. [Related pubchem assays (depositor defined):AID1777, AID1785, AID1786, AID1966, AID2133, AID2136, AID2284, AID2285, AID2352]; type: functional
[20] = target: T8, Delta-type opioid receptor; test: SAR Analysis of Agonists of the DOR Receptor using an Image-Based Assay - Set 2. [Related pubchem assays (depositor defined):AID1777, AID1785, AID1786, AID1966, AID2133, AID2136, AID2284, AID2285, AID2370]; type: functional
[21] = target: T9, Kappa-type opioid receptor; test: SAR analysis of Antagonists of the Kappa Opioid Receptor (KOR) using an Image-Based Assay - Set 2. [Related pubchem assays (depositor defined):AID1777, AID1785, AID1786, AID1966, AID2133, AID2136, AID2284, AID2285, AID2348]; type: functional
[22] = target: T9, Kappa-type opioid receptor; test: SAR analysis of small molecule agonists of the kappa opioid receptor via a luminescent beta-arrestin assay - Set 2. [Related pubchem assays (depositor defined):AID1777, AID1785, AID1786, AID1966, AID2133, AID2136, AID2284, AID449737]; type: functional
[23] = target: T10, Mu-type opioid receptor; test: SAR Analysis of Antagonists of the MOR Receptor using an Image-Based Assay - Set 2. [Related pubchem assays (depositor defined):AID1777, AID1785, AID1786, AID1966, AID2133, AID2136, AID2284, AID2285, AID2420]; type: functional
[24] = target: Voltage-gated inwardly rectifying potassium channel KCNH2 (Homo sapiens, UniProt Q12809); settings: Potency;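 further: confirmatory quantitative high-throughput screen measuring inhibition of hERG channel activity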

T4 sequence (P34972 whole entry): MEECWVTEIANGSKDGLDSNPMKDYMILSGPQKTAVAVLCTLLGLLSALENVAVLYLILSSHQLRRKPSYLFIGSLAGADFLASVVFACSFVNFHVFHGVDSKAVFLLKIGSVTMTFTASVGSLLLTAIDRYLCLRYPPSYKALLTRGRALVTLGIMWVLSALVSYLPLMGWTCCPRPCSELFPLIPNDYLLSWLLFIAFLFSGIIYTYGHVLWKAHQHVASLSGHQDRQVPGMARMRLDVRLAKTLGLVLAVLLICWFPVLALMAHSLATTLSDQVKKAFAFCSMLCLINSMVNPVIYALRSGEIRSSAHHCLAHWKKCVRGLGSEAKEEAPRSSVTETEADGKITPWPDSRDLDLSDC
T6 sequence (P21554 whole entry): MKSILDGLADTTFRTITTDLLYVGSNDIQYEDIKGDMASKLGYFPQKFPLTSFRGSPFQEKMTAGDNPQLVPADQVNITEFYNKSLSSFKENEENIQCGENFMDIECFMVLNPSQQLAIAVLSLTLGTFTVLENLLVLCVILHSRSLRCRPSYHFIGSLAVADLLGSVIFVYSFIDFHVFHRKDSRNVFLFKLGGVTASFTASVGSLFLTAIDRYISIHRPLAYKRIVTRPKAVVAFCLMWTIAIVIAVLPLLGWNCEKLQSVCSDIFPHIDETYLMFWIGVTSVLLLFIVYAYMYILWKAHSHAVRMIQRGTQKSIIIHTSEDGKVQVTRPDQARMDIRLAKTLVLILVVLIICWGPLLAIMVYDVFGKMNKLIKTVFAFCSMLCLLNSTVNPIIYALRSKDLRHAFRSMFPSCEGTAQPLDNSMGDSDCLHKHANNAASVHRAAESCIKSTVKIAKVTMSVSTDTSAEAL
T9 sequence (P41145 whole entry): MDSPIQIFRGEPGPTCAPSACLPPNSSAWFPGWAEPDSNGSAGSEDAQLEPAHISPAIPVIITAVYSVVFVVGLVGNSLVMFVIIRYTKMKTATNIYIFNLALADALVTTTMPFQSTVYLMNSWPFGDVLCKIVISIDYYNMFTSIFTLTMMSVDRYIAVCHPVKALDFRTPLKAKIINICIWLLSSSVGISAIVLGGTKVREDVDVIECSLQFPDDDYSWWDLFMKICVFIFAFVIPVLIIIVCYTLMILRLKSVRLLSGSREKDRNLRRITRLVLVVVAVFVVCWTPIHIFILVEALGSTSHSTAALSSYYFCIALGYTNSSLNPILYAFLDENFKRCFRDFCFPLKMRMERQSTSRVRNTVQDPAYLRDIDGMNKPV
T5 sequence (Q9HC97 whole entry): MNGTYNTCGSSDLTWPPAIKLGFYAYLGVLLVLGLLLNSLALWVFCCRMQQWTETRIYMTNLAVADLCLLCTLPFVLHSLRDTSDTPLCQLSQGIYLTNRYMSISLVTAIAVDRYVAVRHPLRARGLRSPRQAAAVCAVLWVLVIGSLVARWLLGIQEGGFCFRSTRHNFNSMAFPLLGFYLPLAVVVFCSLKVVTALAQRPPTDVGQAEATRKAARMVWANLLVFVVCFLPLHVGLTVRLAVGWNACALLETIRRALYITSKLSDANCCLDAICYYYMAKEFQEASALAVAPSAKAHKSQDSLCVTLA
G-protein coupled receptor 55, sequence (Q9Y2T6 whole entry): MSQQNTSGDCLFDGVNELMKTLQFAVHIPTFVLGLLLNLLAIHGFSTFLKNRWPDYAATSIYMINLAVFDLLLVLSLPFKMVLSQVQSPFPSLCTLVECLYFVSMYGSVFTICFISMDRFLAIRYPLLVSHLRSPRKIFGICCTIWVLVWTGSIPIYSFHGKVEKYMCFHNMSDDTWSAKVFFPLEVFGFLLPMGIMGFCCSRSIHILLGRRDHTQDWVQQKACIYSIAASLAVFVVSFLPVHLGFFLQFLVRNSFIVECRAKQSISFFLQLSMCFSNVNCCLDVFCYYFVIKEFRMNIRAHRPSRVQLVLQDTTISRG
T10 sequence (P35372 whole entry): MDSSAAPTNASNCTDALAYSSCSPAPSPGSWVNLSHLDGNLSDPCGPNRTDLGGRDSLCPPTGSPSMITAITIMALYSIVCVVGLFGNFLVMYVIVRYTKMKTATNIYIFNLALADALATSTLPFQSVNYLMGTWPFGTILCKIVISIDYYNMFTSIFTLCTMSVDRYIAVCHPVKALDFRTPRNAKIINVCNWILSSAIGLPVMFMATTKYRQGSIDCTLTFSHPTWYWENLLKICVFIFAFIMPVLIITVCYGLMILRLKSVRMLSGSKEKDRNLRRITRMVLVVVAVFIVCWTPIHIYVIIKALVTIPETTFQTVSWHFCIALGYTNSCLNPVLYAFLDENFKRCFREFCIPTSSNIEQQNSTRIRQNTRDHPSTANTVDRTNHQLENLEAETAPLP
CAAX prenyl protease 1, sequence (P47154 whole entry): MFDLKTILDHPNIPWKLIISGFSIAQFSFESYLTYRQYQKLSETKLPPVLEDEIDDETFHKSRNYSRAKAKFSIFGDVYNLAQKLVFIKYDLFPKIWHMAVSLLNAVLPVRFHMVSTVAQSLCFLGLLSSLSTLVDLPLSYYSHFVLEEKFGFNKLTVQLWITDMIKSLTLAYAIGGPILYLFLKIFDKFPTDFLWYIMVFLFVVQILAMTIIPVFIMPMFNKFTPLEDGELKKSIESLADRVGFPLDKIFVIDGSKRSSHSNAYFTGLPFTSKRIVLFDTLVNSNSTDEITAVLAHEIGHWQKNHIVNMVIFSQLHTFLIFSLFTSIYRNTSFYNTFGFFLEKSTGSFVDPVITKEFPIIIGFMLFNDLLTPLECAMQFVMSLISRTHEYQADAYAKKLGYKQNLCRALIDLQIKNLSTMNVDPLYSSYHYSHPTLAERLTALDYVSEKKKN
T8 sequence (P41143 whole entry): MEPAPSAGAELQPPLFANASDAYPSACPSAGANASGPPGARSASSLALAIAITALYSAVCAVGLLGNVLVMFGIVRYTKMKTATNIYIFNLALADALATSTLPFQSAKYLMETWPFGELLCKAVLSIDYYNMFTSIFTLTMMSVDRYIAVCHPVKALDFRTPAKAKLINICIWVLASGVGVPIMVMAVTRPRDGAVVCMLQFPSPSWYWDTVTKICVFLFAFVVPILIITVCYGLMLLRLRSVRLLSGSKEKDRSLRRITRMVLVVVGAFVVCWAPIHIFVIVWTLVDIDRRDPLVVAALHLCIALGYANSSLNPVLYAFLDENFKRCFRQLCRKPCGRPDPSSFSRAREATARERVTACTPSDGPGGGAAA
Cytochrome P450 2C9, sequence (P11712 whole entry): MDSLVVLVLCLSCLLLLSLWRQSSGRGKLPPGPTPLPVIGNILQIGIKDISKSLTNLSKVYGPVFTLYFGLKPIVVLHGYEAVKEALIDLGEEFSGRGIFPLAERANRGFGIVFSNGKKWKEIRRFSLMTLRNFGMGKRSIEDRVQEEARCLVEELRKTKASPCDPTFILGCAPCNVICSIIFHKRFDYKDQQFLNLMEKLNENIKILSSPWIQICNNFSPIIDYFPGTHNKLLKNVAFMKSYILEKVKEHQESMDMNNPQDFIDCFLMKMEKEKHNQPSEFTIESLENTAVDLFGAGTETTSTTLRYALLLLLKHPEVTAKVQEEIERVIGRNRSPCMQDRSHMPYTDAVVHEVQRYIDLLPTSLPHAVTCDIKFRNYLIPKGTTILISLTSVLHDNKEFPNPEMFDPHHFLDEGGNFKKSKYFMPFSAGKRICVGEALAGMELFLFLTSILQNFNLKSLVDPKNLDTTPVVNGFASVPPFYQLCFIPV
Cytochrome P450 3A4, sequence (P08684 whole entry): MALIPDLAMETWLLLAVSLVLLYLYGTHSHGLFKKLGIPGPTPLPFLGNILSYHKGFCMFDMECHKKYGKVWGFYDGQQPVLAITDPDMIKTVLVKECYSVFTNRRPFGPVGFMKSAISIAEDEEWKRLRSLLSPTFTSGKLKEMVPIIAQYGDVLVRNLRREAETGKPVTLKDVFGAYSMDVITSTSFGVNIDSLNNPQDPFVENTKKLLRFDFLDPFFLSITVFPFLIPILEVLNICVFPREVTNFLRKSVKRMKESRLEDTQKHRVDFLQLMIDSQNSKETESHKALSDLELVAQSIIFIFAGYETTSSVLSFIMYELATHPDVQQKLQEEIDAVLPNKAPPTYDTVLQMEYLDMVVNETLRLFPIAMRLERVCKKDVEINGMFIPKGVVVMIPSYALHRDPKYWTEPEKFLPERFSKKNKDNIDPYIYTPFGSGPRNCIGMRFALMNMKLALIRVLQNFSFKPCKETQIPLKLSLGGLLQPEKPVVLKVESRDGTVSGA
Cytochrome P450 2C19, sequence (P33261 whole entry): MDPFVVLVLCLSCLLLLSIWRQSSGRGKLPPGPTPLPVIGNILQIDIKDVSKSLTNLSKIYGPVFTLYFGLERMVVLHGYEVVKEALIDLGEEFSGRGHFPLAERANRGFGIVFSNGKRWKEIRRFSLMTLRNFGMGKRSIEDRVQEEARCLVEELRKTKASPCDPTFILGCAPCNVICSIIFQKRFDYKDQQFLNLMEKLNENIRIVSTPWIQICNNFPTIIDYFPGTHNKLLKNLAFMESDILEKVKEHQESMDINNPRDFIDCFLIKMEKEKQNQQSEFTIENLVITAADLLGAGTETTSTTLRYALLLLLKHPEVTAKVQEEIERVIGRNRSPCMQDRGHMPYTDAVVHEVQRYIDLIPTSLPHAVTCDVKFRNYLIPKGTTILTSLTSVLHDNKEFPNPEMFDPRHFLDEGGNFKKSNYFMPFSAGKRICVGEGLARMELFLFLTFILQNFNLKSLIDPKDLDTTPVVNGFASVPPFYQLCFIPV

O=S(=O)(Nc1ccc(-c2nc3cccnc3s2)cc1)c1ccccc1F
IC50 [1]: > 50 µM (inactive)

NC(=O)CSC1=Nc2ccccc2C2=NC(c3ccccc3)C(=O)N12 (stereo unspecified)
AC50 [2]: 4.61 µM (active) | AC50 [3]: 5.41 µM (active)

CC(=O)N1CCN(C2c3cccc4cccc(c34)C2NS(=O)(=O)c2ccccc2)CC1 (stereo unspecified)
EC50 [4]: 48.9 µM (inactive) | EC50 [5]: 29.4 µM (inactive)

Cc1noc(NS(=O)(=O)c2ccc(NC(=O)c3cc(-c4ccccc4Cl)nc4ccccc34)cc2)c1C
EC50 [6]: > 32 µM (inactive) | IC50 [7]: > 32 µM (inactive) | IC50 [8]: 18.8 µM (inactive) | EC50 [9]: > 32 µM (inactive) | IC50 [10]: > 32 µM (inactive) | EC50 [11]: > 32 µM (inactive) | IC50 [12]: 4.63 µM (active)

CCCCC1(C)OC(=O)C(=Cc2ccc(N(C)C)cc2)C(=O)O1 (stereo unspecified)
AC50 [13]: 1 µM (inconclusive) | AC50 [14]: inconclusive | AC50 [15]: 28.2 µM (inconclusive) | AC50 [16]: 14.1 µM (inconclusive)

Cc1ccc2oc(=O)c3cnn(CC(=O)N4CCCCCC4)c3c2c1
EC50 [4]: 34.1 µM (inactive) | EC50 [5]: 21.7 µM (inactive)

Cc1nc(N2CCN(C(=O)COc3ccccc3C)CC2)c2c3c(sc2n1)CCCC3
EC50 [6]: > 32 µM (inactive) | IC50 [7]: > 32 µM (inactive) | IC50 [8]: 2.22 µM (active) | EC50 [9]: > 32 µM (inactive) | IC50 [10]: > 13.1 µM (inactive) | EC50 [11]: > 32 µM (inactive) | IC50 [12]: 13.1 µM (inactive)

Cc1ccc(CSc2nnc(-c3ccccn3)n2Cc2cccs2)cc1
IC50 [17]: > 32 µM (inactive) | EC50 [18]: 2.38 µM (active) | EC50 [19]: > 32 µM (inactive) | EC50 [20]: > 32 µM (inactive) | IC50 [21]: > 32 µM (inactive) | EC50 [22]: 3.59 µM (active) | IC50 [23]: > 32 µM (inactive)

C[N+]1([C@H](CO)Cc2c[nH]c3ccccc23)Cc2ccccc2C1.O=S(=O)([O-])c1ccccc1
AC50 [16]: inactive

CC(CCc1ccccc1)NCC(O)c1ccc(O)c(C(N)=O)c1 (stereo unspecified) [LABETALOL HYDROCHLORIDE]
AC50 [24]: 15.8 µM (inconclusive) | AC50 [2]: 15.3 µM (active) | AC50 [3]: 7.7 µM (active)
